Laboratory results published in patent publication US9901650B2, “Methods for evaluating brain-wide paravascular pathway for waste clearance function and methods for treating neurodegenerative disorders based thereon” (University of Rochester, priority 2013, dated 2018).
“Also recorded” adds a separate entry of the source. Like-named read-outs stand apart in the source and are kept apart here. No end group written: not given here.

Tests used:
[1] = rat, in vivo
Procedure: (§1) Sprague Dawley rats (2-3 month old females) were anesthetized with phenobarbital and lumbar intrathecal catheters placed. Imaging was performed using a custom-built, MRI-compatible PET scanner for the rat brain in combination with a 9.4T microMRI (ref). […] The PET ring (ID 38 mm and accommodating the head of a rat) consists of 12 detector blocks consisting of a 4×8 array of 2.22×2.22×5 mm^3 lutetium oxyorthosilicate (LSO) crystals assembled with a thin reflective foil and coupled to a matching non-magnetic S8550 APD array (ref). PET data are transferred via optical fibers to an external (PCI)-based data acquisition board (ref). For simultaneous PET/MRI imaging a custom-made volume RF coil which fits inside the PET ring was used. The 9.4T microMRI used in all experiments is a superconducting horizontal bore magnet (Bruker Biospin 94/20, 400 MHz, Magnex scientific) interfaced to a Bruker Advance console and controlled by Paravision 5.0 software (Bruker Bio Spin, Billerica, Mass.). The magnet is equipped with an actively shielded combined RT-shim and gradient system (B-GA 12S) that can produce a maximum gradient strength of 200 mT/m. […]

[2] = Dynamic integrated MRI-PET imaging after intrathecal infusion; details: lumbar intrathecal infusion
Procedure: as §1

[3] = Dynamic contrast-enhanced MRI after intrathecal infusion of paramagnetic contrast: regional tissue uptake (TACs, mAUC)
Procedure: Female Sprague Dawley rats were used (Taconics, body weight: 220-280 g). For anesthesia, the animals were induced with 3% isofluorane in oxygen using an induction chamber and then received an intra-peritoneal injection of 40 mg/kg […] (Nembutal® Sodium solution, OVATION, Pharmaceuticals, Inc., Deerfield, Ill., USA). The animals were allowed to breathe spontaneously during the entire experiment. Non-invasive monitors (pulse-oximetry, respiratory rate and rectal temperature probe, SA Instruments, Inc., Stony Brook, N.Y.) were placed to assure adequate oxygenation (O2-saturation>97%), ventilation (respiratory rate 50-65 breath per minute) and normal body temperature (36.5° C.-37.5° C.) during the surgical procedures. A 24-gauge catheter was inserted into the tail vein for administration of fluids and supplemental anesthesia. The animal was positioned in a stereotaxic frame (Kopf Instruments, frame #9) and the head flexed to 50 degrees. For the brief surgical procedure, anesthesia was supplemented with isoflurane (0.8-1.2%) delivered in an 1:1 O2:Air mixture.
The atlanto-occipital membrane was exposed via a midline dorsal neck incision and a small incision was made to expose the underlying dura mater. A polyethylene catheter (6-cm long, 0.28 mm ID×0.61 mm OD, (Solomon Scientific, Plymouth Meeting, Pa.)) filled with normal saline was advanced 1-mm into the intrathecal space via a small durotomy made using a 23-gauge needle and was fixed and sealed with super glue. The skin incision was closed around the catheter.
Following surgery, the rats were flipped supine and positioned in a custom-made acrylic cradle fitted with a head fixation device and a snout mask for delivery of supplemental oxygen. The head of the animal was positioned on top of a 3.0 cm custom-made radio-frequency (rf) receiver coil. Non-invasive, MRI compatible monitors (pulse-oximetry, respiratory rate and rectal temperature probe, SA Instruments, Inc., Stony Brook, N.Y.) were repositioned for continuous monitoring of vital signs while the animal underwent MRI imaging. During imaging, body temperature was kept strictly within 36.5-37.5° C. during imaging using a computer assisted air heating system (SA Instruments, Inc., Stony Brook, N.Y.). The intrathecal catheter was connected to a long PE 20 line filled with paramagnetic MR contrast diluted in 0.9% NaCl attached to a 1 cc-syringe and microinfusion pump (Baxter Model AS50 infusion Pump, Baxter Healthcare Corporation, Illinois, USA). The tail vein catheter was used for maintenance hydration (0.9% NaCl, 4 cc/kg/hr) and supplemental anesthesia (Nembutal®, 5-10 mg/kg IV) administered every 2 hrs as guided by the respiratory rate.
All imaging protocols were performed on a 9.4T/20 MRI instrument interfaced to a Bruker Advance console and controlled by Paravision 5.0 software (Bruker Bio Spin, Billerica, Mass.). A custom-made 3-cm surface radio-frequency coil was used as a receiver and a 16-cm diameter volume coil (Bruker) was used as a transmitter. […] For all experiments a 60 mM (1:8 volume ratio diluted in 0.9% NaCl) Gd-DTPA phantom placed in the vicinity of animal's head was used for image intensity normalization over the time series. […] A total of 80 μl of the paramagnetic contrast agent was delivered intrathecally at an infusion rate of 1.6 μl/min (total infusion time: 50 min). After completion of the intrathecal infusion, the 3D MRI acquisitions continued over 3.9 hrs. At the end of the experiment the animal was euthanized with an overdose of Nembutal.
The general MRI image processing procedure consisted of head motion correction, intensity normalization, smoothing and voxel-by-voxel conversion to % of baseline signal. SPM8 (World Wide Web at fil.ion.ucl.ac.uk/spm) was used for this. First, the acquired T1-weighted MRI images were exported as DICOM files and converted to 3D Nlfti image format.

[4] = K-means cluster analysis of contrast-enhanced MRI, 4 mid-sagittal slices
Procedure: Non-parametric segmentation to group voxels in the MRI images on the basis of similar kinetics was performed using a k-means cluster algorithm (PMOD Version 3.307, PMOD Technologies, Ltd, Zurich, Switzerland) on four sagittal slices at the level of the aqueduct from each of the 4D T1-weighted MRIs. A volume-of-interest mask containing the brain only was created for the cluster analysis. The number of clusters (K) used was determined by the K which was able to segment out voxels adjacent to the large vessels such as basilar artery (including pituitary recess) and olfactory artery complex. This was done on an interactive, per animal basis.
All data are presented as mean±SD.

glymphatic system [5] = experiment: Brain clearance of 125I-Aβ40 and 14C-inulin after injection into the frontal cortex, pharmacological intervention; assay type: in vivo, mice
Procedure: The role of RAS on clearance of exogenous ^125I-Aβ and ^14C-inulin were determined at 30 minutes after their injection into the frontal cortex (Xie et al., 2013).
Briefly, a stainless steel guide cannula was implanted stereotaxically into the right caudate-putamen or frontal cortex of anesthetized mice (ketamine (100 mg/kg) and xylazine (10 mg/kg). For the frontal cortex, the coordinate of the cannula tip was 0.7 mm anterior and 3.0 mm lateral to the bregma, and 1.3 mm below the surface of the brain. Animals were allowed to recover after surgery. The experiments were performed before substantial chronic process occurred, but allowing time for the BBB repair to large molecules, as reported (Deane et al., 2004). Drugs were pre-injected for 10 minutes before injection of the radio-labeled molecules.
Injection of the mixture of tracers: Mock CSF (0.5 μL) containing ^125I-labeled Aβ40 (10 nM monomer) together with ^14C-inulin (0.05 μCi, an inert molecule for bulk flow) was microinfused into brain ISF over 5 minutes.
At the end of the experiments brain was removed and prepared for radioactivity analysis and TCA analyses.
^125I-radioactivities were determined in a gamma counter (Wallac Vizard Gamma Counter, Perkin Elmer). For ^14C-counting, the samples were solubilized in 0.5 ml tissue solubilizer (Perkin Elmer) overnight, followed by addition of 5 ml of scintillation cocktail (Packard Ultima Gold) and analyzed in a liquid scintillation counter (Beckman Coulter Counter).
All calculations of clearance parameters were carried out as described above or by routine methods (Deane et al., 2004; Xie et al., 2013). Briefly, the percentage of radioactivity remaining in the brain after microinjection was determined as % recovery in brain=100×(Nb/Ni), where Nb is the radioactivity remaining in the brain at the end of the experiment and Ni is the radioactivity injected into the brain ISF, i.e., the d.p.m. for ^14C-inulin and the c.p.m. for the TCA-precipitable ^125I-radioactivity. Inulin was used as a metabolically inert polar molecule which is neither transported across the BBB nor retained by the brain; its clearance rate provides a measure of the ISF convective bulk flow. For each group there were 3-6 mice, and data expressed as mean±SEM. P<0.5 was taken as statistically significant as determined using T-test.

glymphatic system [6] = experiment: Brain influx of 125I-Aβ40 and 14C-inulin after injection into the cisterna magna, pharmacological intervention; assay type: in vivo, mice
Procedure: The role of RAS on the influx of these molecules into brain was determined by injecting these molecules into the subarachnoid space (cisterna magna) and determining brain levels after 30 minutes.
A small volume (5 μL) of mock CSF containing ^125I-Aβ40 (10 nM) and ^14C-inulin (0.05 μCi) was microinjected into the cistern magna at 1 μL/min. At the end of the experiment (30 minutes) the brain was removed and analyzed for radioactivity.

AQP4-M1 expression = AQP4-M1 expression by qPCR in cultured primary cortical astrocytes; assay type: cell-based, mouse; details: vs. control; siRNA transfected for six days
Description: (A) The Aqp4 gene has two transcription initiation site, with transcription initiated at each site resulting in two AQP4 mRNA variants: AQP4-M1 which includes Exons 0-4 of the Aqp4 gene and AQP4-M23 which lacks Exon 0. (B) AQP4-M23 (the predominant form in the CNS under physiological conditions) permits perivascular AQP4 packing while AQP4-M1 prevents it; thus increasing AQP4-M1 expression impairs AQP4 polarization (Crane et el. J Biol Chem 2009; Furman et al. Proc Nat Acad Sci 2003). (C) The expression of AQP4-M1 was evaluated by real-time quantitative PCR (qPCR) in the mouse ipsilateral cortex 3 days after TBI using PCR primers specifically targeting Exon 0 of the AQP4-M1 transcript. Compared to AQP4-M1 expression in the control (sham) cortex, TBI increased AQP4-M1 expression by approximately two-fold (*P<0.05, t-test; n=5 per group). (D) Using an siRNA-based approach targeting Exon 0 of the AQP4-M1 variant, the expression of AQP4-M1 could be efficiently knocked down in cultured primary mouse cortical astrocytes. Three siRNA duplexes were designed to target Exon 0 of the AQP4-M1 transcript, and primary mouse astrocytes were transfected with these siRNA duplexes for six days. […] Thus, we tested whether inhibition of STAT3 signaling in primary mouse cortical astrocytes could reduce AQP4-M1 expression. […]

[7] = Intracisternal radio-tracer injection: accumulation in the brain parenchyma
Procedure: Anesthetized mice were fixed in a stereotaxic frame and a 30GA needle was inserted into the cisterna magna. For intracisternal injections, 10 μl of CSF tracer was injected at a rate of 2 μl/min over 5 minutes with a syringe pump (Harvard Apparatus).
After 15, 30 or 45 minutes, animals were rapidly decapitated, the skull opened, the dura removed and the brain harvested. The brain was solubilized in 2 ml Soluene (Sigma) at 45° C. overnight. 10 ml Hionic Fluor liquid scintillation cocktail (Perkin Elmer) was added and radioactivity was measured in a Multipurpose Scintillation Counter (Beckman Coulter). Brain radioactivity was normalized to total radioactivity detected in a 10 μl aliquot put directly into a scintillation vial immediately before intracisternal radio-tracer injection and expressed as the % of total injected radioactivity. ^3H-mannitol and ^3H-dextran accumulation in the brain was compared by 2-way ANOVA with Bonferroni's post-hoc test.

[8] = Intra-striate radio-tracer injection: interstitial solute clearance from the brain, wild type vs Aqp4-null
Procedure: To evaluate the pathways and rates of interstitial fluid and solute clearance from the brain, fluorescent and radio-labeled tracers were injected stereotactically into the brain parenchyma. Anesthetized animals were fixed in a stereotaxic frame and a 33GA needle was inserted via a small burr hole into the brain at the following coordinates: intra-cortical injections (0.22 mm caudal, 2.0 mm lateral, 1.75 mm ventral to bregma), intra-striate injections (0.22 mm caudal, 2.5 mm lateral, 3.5 mm ventral to bregma), intrathalamic injections (1.82 mm caudal, 1.25 mm lateral, 3.75 mm ventral to bregma). After needle insertion, 30 minutes was allowed to elapse to allow the needle track to swell closed. 1.0 μl of tracer (dissolved in artificial CSF) was injected at a rate of 17 nl/min.
15 min, 30 min, 1 h or 2h later, the animal was rapidly decapitated and the brain harvested. The brain was solubilized as above, and the radioactivity present in the brain was measured by liquid scintillation spectrometry. All radioactivity values were normalized to 1 μl injection standards taken immediately prior to each intra-parenchymal injection.

[9] = ratio of average mAUC of region to average mAUC of pituitary recess, mean ± SD
[10] = agent 1 μM, 30 minutes, frontal cortex

## 2-deoxy-2-(^18F)fluoro-D-glucose [^18FDG]
[1]
  transport through the brain-wide glymphatic pathway: moves rapidly through the brain-wide glymphatic pathway

## CNC[C@H](O)[C@@H](O)[C@H](O)[C@H](O)CO.CNC[C@H](O)[C@@H](O)[C@H](O)[C@H](O)CO.O=C([O-])CN(CCN(CC(=O)[O-])CC(=O)O)CCN(CC(=O)[O-])CC(=O)O.[Gd+3] [Gd-DTPA, 1-deoxy-1(methylamino)D-glucitol dihydrogen [N,N-bis[2-[bis(carboxymethyl)amino]ethyl]glycinato (5-)]gadolinite(2-)(2:1)]
[2]
  transport through the brain-wide glymphatic pathway: with some ‘restriction’
[3]; not normalized, mean ± SD
  mAUC at the pituitary recess: 743±266 % signal change per time interval
[3]; post-injection
  time at which average uptake in the cerebellum peaked / reached apparent plateau: ~90 min
  time of peak of signal changes induced within the parenchyma: 60 to 80 min
[3]; [9]
  mAUC, Aqueduct: 0.34 ± 0.23
  mAUC, Cerebellum: 0.28 ± 0.11
  mAUC, Olfactory Bulb: 0.24 ± 0.11
  mAUC, Pontine Nucleus: 0.17 ± 0.09
[3]; ratio of average mAUC of region to average mAUC of pituitary recess, mean ± SD, intrathecal infusion
  mAUC, Pineal recess: 1.01 ± 0.35
[4]; most distally labeled voxels
  #Voxels - Zone 3, mean (SD): 18295 (7407)
[4]; para-vascular zone
  #Voxels - Zone 1, mean (SD): 4048 (2146)
[4]; rat, in vivo
  Zone 2#Voxels*AUC/Zone 1#Voxels*AUC, mean (SD): 1.62 (0.60)
  time-to-peak of the para-vascular red cluster: ~90 min
[4]; tissue adjacent to zone 1
  #Voxels - Zone 2, mean (SD): 15835 (5690)

## CC(=N)NCCCC[C@H](N)C(=O)O [L-NIL]
Glymphatic system [5]; 1 mM
  clearance of Aβ: increased
  clearance of inulin: increased
Glymphatic system [6]; mouse, in vivo
  influx of Aβ with dose: dose dependent increase
  influx of inulin with dose: dose dependent increase

## O=[N+]([O-])c1ccc2c(c1)S(=O)(=O)C=C2 [STATTIC]
AQP4-M1 expression
  AQP4-M1 expression: significantly reduced

## OC[C@@H](O)[C@@H](O)[C@H](O)[C@H](O)CO [[^3H]mannitol]
[7]; % of total injected radioactivity, R2=0.3597
  approximate maximal influx, plateau of one-phase association fit: 39.96±5.55%
[7]; within 45 min of intracisternal injection
  proportion of injected tracer detectable in the brain: ~40%
[8]; intra-striate injection
  reduction of clearance from the brain interstitium in Aqp4-null mice compared to wild type: ~70%

## NC(=O)CC[C@@H]1NC(=O)[C@H](Cc2ccccc2)NC(=O)[C@H](Cc2ccc(O)cc2)NC(=O)[C@@H](N)CSSC[C@@H](C(=O)N2CCC[C@H]2C(=O)N[C@@H](CCCN=C(N)N)C(=O)NCC(N)=O)NC(=O)[C@H](CC(N)=O)NC1=O [vasopressin]
Glymphatic system [5]; [10]
  brain clearance of Aβ: reduced
  brain clearance of inulin: reduced

## ^125I-amyloid β1-40: radio-labeled amyloid β1-40 peptide tracer
[7]; mouse, in vivo
  accumulation in the brain after intracisternal injection, in words: increased in a manner comparable to [^3H]dextran-10
[8]; mouse, in vivo
  rate of clearance from the brain in wild-type mice, in words: exceeded that of either [^3H]mannitol or [^3H]dextran-10
  reduction of clearance from the brain interstitium in Aqp4-null mice compared to wild type: ~55%

## angiotensin (1-7): active angiotensin metabolite acting on the Mas receptor; opposes angiotensin II (DRVYIHP; Angiotensin 1-7; UniProt P01019 25-31, looked up)
Glymphatic system [5]; 1 nM and 10 nM, 15 minute time point
  clearance of Aβ at 15 minutes: increased; also recorded: greater change between concentrations 10 nM and 1 nM
Glymphatic system [5]; 1 μM, 0.1 μM and 0.01 μM, pre-injected into frontal cortex, 30 minutes
  clearance of Aβ with dose: increased progressively with dose

## angiotensin II: peptide of the renin-angiotensin system acting on AT1R and AT2R
Glymphatic system [5]; [10]
  brain clearance of Aβ: reduced
  brain clearance of inulin: reduced
  levels of Aβ40 remaining in brain (recovery): increase
  levels of inulin remaining in brain (recovery): increase
Glymphatic system [6]; agent 1 μM injected into the cistern magna, 30 minutes
  influx of Aβ40 into brain: decrease
Glymphatic system [6]; angiotensin II 1 μM, losartan route not given, 30 minutes
  influx of inulin into brain: decrease

## atrial natriuretic peptide (ANP): a peptide that reduces body water and sodium (SLRRSSCFGGRMDRIGAQSGLGCNSFRY; ends and bridges not checked; cysteine pairing not given here; UniProt P01160 124-151, looked up)
Glymphatic system [5]; [10]
  brain clearance of Aβ: reduced
  brain clearance of inulin: reduced
